{
  "source": "paper PMC6351562",
  "about": "“Structure, function, and inhibition of drug reactivating human gut microbial β-glucuronidases” (Scientific Reports, 2019)",
  "assay_type_in_all_cases": "biochemical",
  "key": {"[1]": {"biological_target": "Bacteroides fragilis GUS (BfGUS) (Bacteroides fragilis, UniProt Q5LIC7)", "sequence (Q5LIC7 whole entry)": "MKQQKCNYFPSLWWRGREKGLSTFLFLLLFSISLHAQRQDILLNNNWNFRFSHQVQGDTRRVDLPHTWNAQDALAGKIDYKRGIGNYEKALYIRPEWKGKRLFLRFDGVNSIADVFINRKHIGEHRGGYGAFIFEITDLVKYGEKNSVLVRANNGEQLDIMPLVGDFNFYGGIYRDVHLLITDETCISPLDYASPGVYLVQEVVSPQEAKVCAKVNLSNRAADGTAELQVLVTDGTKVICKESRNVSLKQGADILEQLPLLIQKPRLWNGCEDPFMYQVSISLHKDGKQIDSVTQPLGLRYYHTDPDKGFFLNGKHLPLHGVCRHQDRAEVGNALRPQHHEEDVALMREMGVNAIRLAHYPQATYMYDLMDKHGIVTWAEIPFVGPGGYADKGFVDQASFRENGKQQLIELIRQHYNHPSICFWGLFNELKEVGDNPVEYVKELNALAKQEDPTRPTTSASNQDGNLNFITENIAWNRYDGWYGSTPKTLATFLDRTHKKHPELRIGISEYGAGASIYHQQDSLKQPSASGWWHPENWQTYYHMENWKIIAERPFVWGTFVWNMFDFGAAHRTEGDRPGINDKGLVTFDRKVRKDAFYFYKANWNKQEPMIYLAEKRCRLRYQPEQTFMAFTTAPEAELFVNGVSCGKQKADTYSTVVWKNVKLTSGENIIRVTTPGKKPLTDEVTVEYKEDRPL", "assay": "In vitro DCF-G processing assay (UPLC)", "details": "DCF-G as substrate, 400 µM; pH 5.0; 37 °C", "from_the_text": "(§1) While pNPG serves as a useful tool to assess the glucuronide processing capabilities of GUS enzymes, it is not a substrate present in the GI tract. Given our hypothesis that L1 GUS enzymes efficiently process drug glucuronides, we determined using ultra performance liquid chromatography (UPLC) the cleavage rates of the novel L1 GUS enzymes FpGUS, LrGUS, RgGUS, as well as the ten additional enzymes in our GUS panel, with the physiologically relevant glucuronide metabolite of the NSAID diclofenac, DCF-G (Table 3 and Fig. S11).\n(§2) Diclofenac acyl β-D-glucuronide (DCF-G) was purchased as a solid (LC Scientific Inc., Concord ON) and resuspended in DMSO to a concentration of 25 mM. […] The pH of each reaction was chosen based on the optimal pH determined for each GUS with pNPG. Reactions were quenched at 0, 1, 2, 3, 4, and 5 min with 50 µL of 25% trichloroacetic acid (TCA). For PmGUS, reactions were quenched at 0, 10, 20, 30, 40, and 50 min. After centrifugation at 13,000xg for 10 min, the resultant supernatant was subjected to UPLC analysis. The concentration of DCF-G remaining at each time point was quantified on a Waters Acquity H-class liquid chromatograph system. Samples were separated on a Waters Acquity UPLC BEH C18 column (2.1 × 50 mm, 1.7 µm particle size) at 40 °C. The flow rate was 0.6 mL/min, and the injection volume was 3 µL. LC conditions were set at 100% water with 0.1% formic acid (A) ramped linearly over 9.8 mins to 95% acetonitrile with 0.1% formic acid (B) and held until 10.2 mins. At 10.21 mins the gradient was switched back to 100% A and allowed to re-equilibrate until 11.25 mins. DCF-G was monitored at 280 nm. The concentration of DCF-G was determined from a standard curve (0–500 µM DCF-G in assay buffer). Control reactions were performed in which enzyme was substituted with buffer. Background hydrolysis was not observed at each pH tested. Reactions were performed in triplicate for each enzyme."}, "E. coli GUS (EcGUS)": {"biological_target": "E. coli GUS (EcGUS) (Escherichia coli, UniProt P05804)", "sequence (P05804 whole entry)": "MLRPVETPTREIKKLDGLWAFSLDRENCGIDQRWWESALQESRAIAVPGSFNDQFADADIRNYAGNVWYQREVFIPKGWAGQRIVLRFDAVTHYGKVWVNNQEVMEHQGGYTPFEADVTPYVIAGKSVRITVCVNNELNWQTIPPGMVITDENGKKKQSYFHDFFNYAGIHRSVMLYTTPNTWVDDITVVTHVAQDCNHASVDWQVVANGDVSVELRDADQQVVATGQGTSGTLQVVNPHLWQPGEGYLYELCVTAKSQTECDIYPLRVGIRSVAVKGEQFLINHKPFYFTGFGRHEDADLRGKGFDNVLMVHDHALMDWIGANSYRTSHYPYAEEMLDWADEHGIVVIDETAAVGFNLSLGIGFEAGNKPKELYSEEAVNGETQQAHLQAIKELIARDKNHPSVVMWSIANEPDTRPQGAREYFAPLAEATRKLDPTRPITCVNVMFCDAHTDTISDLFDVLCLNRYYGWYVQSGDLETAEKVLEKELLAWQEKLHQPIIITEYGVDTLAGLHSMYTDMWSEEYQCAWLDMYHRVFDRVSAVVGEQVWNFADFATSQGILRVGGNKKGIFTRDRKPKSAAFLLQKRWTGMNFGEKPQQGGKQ", "assay": "In vitro DCF-G processing assay (UPLC)", "details": "DCF-G as substrate, 400 µM; pH 7.4; 37 °C", "from_the_text": "as §1, §2"}, "[2]": {"biological_target": "T1, Streptococcus agalactiae GUS (SaGUS) (Streptococcus agalactiae serotype V, UniProt Q8E0N2)", "T1 construct": "6x His; made in house", "T1 sequence (Q8E0N2 whole entry)": "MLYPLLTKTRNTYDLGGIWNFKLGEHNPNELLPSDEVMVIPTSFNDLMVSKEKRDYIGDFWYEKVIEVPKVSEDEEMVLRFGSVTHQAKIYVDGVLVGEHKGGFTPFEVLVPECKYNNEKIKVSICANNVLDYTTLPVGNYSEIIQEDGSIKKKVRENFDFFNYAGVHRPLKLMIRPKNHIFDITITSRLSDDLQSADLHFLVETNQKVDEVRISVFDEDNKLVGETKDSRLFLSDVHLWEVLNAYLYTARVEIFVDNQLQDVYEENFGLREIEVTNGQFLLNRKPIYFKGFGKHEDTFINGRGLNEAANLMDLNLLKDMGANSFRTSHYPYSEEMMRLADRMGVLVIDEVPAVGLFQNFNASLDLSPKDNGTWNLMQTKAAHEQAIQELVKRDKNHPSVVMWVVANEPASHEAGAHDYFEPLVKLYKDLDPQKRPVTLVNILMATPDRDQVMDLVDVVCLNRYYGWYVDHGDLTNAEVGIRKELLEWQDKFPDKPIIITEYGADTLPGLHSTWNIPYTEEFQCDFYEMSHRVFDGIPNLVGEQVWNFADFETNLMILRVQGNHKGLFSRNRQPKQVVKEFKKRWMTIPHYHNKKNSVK", "assay": "In vitro DCF-G processing assay (UPLC)", "details": "DCF-G as substrate, 400 µM; pH 6.5; 37 °C", "from_the_text": "as §1, §2"}, "[3]": {"biological_target": "Clostridium perfringens GUS (CpGUS) (Clostridium perfringens, UniProt Q8VNV4)", "details": "pH 6.5; 37 °C"}, "[4]": {"biological_target": "T2, Lactobacillus rhamnosus GUS (LrGUS) (Lacticaseibacillus rhamnosus, UniProt A0A2A5L2J1)", "T2 sequence (A0A2A5L2J1 1-603)": "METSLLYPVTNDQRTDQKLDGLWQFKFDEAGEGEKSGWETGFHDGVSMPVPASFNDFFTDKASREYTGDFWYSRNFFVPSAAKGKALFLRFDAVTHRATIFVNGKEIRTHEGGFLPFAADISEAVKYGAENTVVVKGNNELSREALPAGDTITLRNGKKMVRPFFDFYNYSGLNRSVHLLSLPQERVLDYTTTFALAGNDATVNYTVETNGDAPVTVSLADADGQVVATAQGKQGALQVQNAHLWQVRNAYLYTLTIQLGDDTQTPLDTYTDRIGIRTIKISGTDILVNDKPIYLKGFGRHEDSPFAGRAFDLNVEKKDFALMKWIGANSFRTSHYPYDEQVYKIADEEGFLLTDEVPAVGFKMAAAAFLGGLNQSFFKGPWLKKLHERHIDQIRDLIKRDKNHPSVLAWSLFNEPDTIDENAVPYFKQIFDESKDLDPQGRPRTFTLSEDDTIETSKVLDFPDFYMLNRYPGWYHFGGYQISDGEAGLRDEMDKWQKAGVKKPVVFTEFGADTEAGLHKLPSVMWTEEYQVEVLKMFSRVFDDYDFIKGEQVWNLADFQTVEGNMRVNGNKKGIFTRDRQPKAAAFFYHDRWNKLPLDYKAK", "assay": "In vitro DCF-G processing assay (UPLC)", "details": "DCF-G as substrate, 400 µM; pH 4.5; 37 °C"}},
  "note": "Values joined by “and” are separate entries in the source; they are usually repeats but may differ in a detail not shown here. Identical values can stand only once.",
  "data": [
    {"smiles": "O=C(Cc1ccccc1Nc1c(Cl)cccc1Cl)O[C@@H]1O[C@H](C(=O)O)[C@@H](O)[C@H](O)[C@H]1O", "note": "[DCF-G, Diclofenac acyl β-D-glucuronide]", "values": [
      {"measurement": "Apparent kcat", "setting": "[1]", "result": "15.1 s⁻¹ and 15.1 ± 0.5 s⁻¹"},
      {"measurement": "Apparent kcat", "setting": "E. coli GUS (EcGUS)", "result": "30.7 s⁻¹ and 30.7 ± 0.7 s⁻¹"},
      {"measurement": "Apparent kcat", "setting": "[2]", "result": "97 s⁻¹ and 97 ± 5 s⁻¹"},
      {"measurement": "Apparent kcat", "setting": "[3]", "result": "61.5 ± 0.6", "unit": "s⁻¹"},
      {"measurement": "Apparent kcat", "setting": "[4]", "result": "10 s⁻¹ and 10 ± 1 s⁻¹"}
    ]}
  ]
}
